# Test results: US9499550B2 (BRISTOL-MYERS SQUIBB COMPANY, priority 2012, dated 2016)
# Like-named read-outs stand apart in the source and are kept apart here.
# How the values were obtained:
# [1] = tested on: HCV genotype 1a (H77 strain) replicon in HUH-7 cells; experiment: HCV replicon luciferase reporter assay, genotype 1a; type: cell-based; conditions: Hepatitis C virus, Huh-7, 72 h, HCV genotype 1a replicon luciferase, 3 days incubation
# Outline: (§1)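 Replicon inhibition for both genotypes was measured as Renilla luciferase signal (EnduRen, 7.5 μM final, 2 h) after 3-day, 37° C exposure of replicon-bearing HUH-7 cells in 4% FCS DMEM, 0.5% DMSO. The 1b construct carries S1179I; the 1a H77 construct carries P1496L and S2204I. Twenty-point, 3-fold dilutions were fitted four-parametrically for EC50, and CC50 was taken from multiplexed Cell Titer-Blue.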
# [2] = tested on: HCV genotype 1b (Con1) replicon in HUH-7 cells; experiment: HCV replicon luciferase reporter assay, genotype 1b; type: cell-based; conditions: Hepatitis C virus, Huh-7, 72 h, HCV genotype 1b replicon luciferase, 3 days incubation
# Outline: as §1
# [3] = GETYPE1A, read-out: LE_1a (EC50, range)
# [4] = GETYPE1B, read-out: LE_1b (EC50, range)
compound,measurement,setting,value
CC[C@@H]1C[C@H](C)CC/C=C\[C@@H]2C[C@@]2(C(=O)NS(=O)(=O)C2(CF)CC2)NC(=O)[C@@H]2C[C@@H](Oc3nccc4cc(OC)ccc34)CN2C(=O)[C@H]1NC(=O)OC(C)(C)C(F)(F)F [Compound 4205],EC50,[1]; [3],< 5.46 nM
same,EC50,[2]; [4],< 5.46 nM
CC[C@@H]1C[C@H](C)CC/C=C\[C@@H]2C[C@@]2(C(=O)NS(=O)(=O)C2(C)CC2)NC(=O)[C@@H]2C[C@@H](Oc3ncc(N4CCOCC4)c4cc(OC)ccc34)CN2C(=O)[C@H]1NC(=O)OC(C)(C)C(F)(F)F [Compound 4206],EC50,[1]; [3],< 5.46 nM
same,EC50,[2]; [4],< 5.46 nM
CC[C@@H]1C[C@@H](C)CC/C=C\[C@@H]2C[C@@]2(C(=O)NS(=O)(=O)C2(C)CC2)NC(=O)[C@@H]2C[C@@H](Oc3ncc(N4CCOCC4)c4cc(OC)ccc34)CN2C(=O)[C@H]1NC(=O)OC(C)(C)C(F)(F)F [Compound 4207],EC50,[1]; [3],< 5.46 nM
same,EC50,[2]; [4],< 5.46 nM
CC[C@@H]1C[C@@H](C)CC/C=C\[C@@H]2C[C@@]2(C(=O)NS(=O)(=O)C2(C)CC2)NC(=O)[C@@H]2C[C@@H](Oc3ncc(OC)c4cc(OC)c(F)cc34)CN2C(=O)[C@H]1NC(=O)OC(C)(C)C(F)(F)F [Compound 4208],EC50,[1]; [3],4.82 to 103 nM
same,EC50,[2]; [4],< 5.46 nM
CC[C@@H]1C[C@H](C)CC/C=C\[C@@H]2C[C@@]2(C(=O)NS(=O)(=O)C2(C)CC2)NC(=O)[C@@H]2C[C@@H](Oc3cnc4ccc(OC)cc4n3)CN2C(=O)[C@H]1NC(=O)OC(C)(C)C(F)(F)F [Compound 4219],EC50,[1]; [3],< 5.46 nM
same,EC50,[2]; [4],< 5.46 nM
"COc1ccc2nc(O[C@@H]3C[C@H]4C(=O)N[C@]5(C(=O)NS(=O)(=O)C6(CF)CC6)C[C@H]5/C=C\CC[C@@H](C)C[C@@H](C)[C@H](NC(=O)OC(C)(C)C)C(=O)N4C3)c(C)nc2c1 [Compound 4221, tert-butyl (2R,6S,7R,9R,13aS,14aR,16aS,Z)-14a-(1-(fluoromethyl)cyclopropylsulfonylcarbamoyl)-2-(6-methoxy-3-methylquinoxalin-2-yloxy)-7,9-dimethyl-5,16-dioxo-1,2,3,5,6,7,8,9,10,11,13a,14,14a,15,16,16a-hexadecahydrocyclopropa[e]pyrrolo[1,2-a][1,4]diazacyclopentadecin-6-ylcarbamate]",EC50,"[1]; read-out: LE_1a (EC50, range)",< 5.46 nM
same,EC50,"[2]; read-out: LE_1b (EC50, range)",< 5.46 nM
"COc1ccc2nc(C)c(O[C@@H]3C[C@H]4C(=O)N[C@]5(C(=O)NS(=O)(=O)C6(CF)CC6)C[C@H]5/C=C\CC[C@@H](C)C[C@@H](C)[C@H](NC(=O)OC(C)(C)C)C(=O)N4C3)nc2c1 [Compound 4222, tert-butyl (2R,6S,7R,9R,13aS,14aR,16aS,Z)-14a-(1-(fluoromethyl)cyclopropylsulfonylcarbamoyl)-2-(7-methoxy-3-methylquinoxalin-2-yloxy)-7,9-dimethyl-5,16-dioxo-1,2,3,5,6,7,8,9,10,11,13a,14,14a,15,16,16a-hexadecahydrocyclopropa[e]pyrrolo[1,2-a][1,4]diazacyclopentadecin-6-ylcarbamate]",EC50,"[1]; read-out: LE_1a (EC50, range)",< 5.46 nM
same,EC50,"[2]; read-out: LE_1b (EC50, range)",< 5.46 nM
CC[C@@H]1C[C@H](C)CC/C=C\[C@@H]2C[C@@]2(C(=O)NS(=O)(=O)C2(C)CC2)NC(=O)[C@@H]2C[C@@H](Oc3ncc(OC4CC4)c4ccccc34)CN2C(=O)[C@H]1NC(=O)OC(C)(C)C(F)(F)F [Compound 4223],EC50,[1]; [3],< 5.46 nM
same,EC50,[2]; [4],< 5.46 nM
COc1cnc(O[C@@H]2C[C@H]3C(=O)N[C@]4(C(=O)NS(=O)(=O)C5(F)CC5)C[C@H]4/C=C\CC[C@@H](C)C[C@@H](C)[C@H](NC(=O)OC(C)(C)C)C(=O)N3C2)c2ccccc12 [Compound 4224],EC50,"[1]; read-out: LE_1a (EC50, range)",< 5.46 nM
same,EC50,"[2]; read-out: LE_1b (EC50, range)",< 5.46 nM
"C[C@@H]1CC/C=C\[C@@H]2C[C@@]2(C(=O)NS(=O)(=O)C2(F)CC2)NC(=O)[C@@H]2C[C@@H](Oc3ncc(OC4CC4)c4ccccc34)CN2C(=O)[C@@H](NC(=O)OC(C)(C)C)[C@H](C)C1 [Compound 4225, tert-butyl (2R,6S,7R,9R,13aS,14aR,16aS,Z)-2-(4-cyclopropoxyisoquinolin-1-yloxy)-14a-(1-fluorocyclopropylsulfonylcarbamoyl)-7,9-dimethyl-5,16-dioxo-1,2,3,5,6,7,8,9,10,11,13a,14,14a,15,16,16a-hexadecahydrocyclopropa[e]pyrrolo[1,2-a][1,4]diazacyclopentadecin-6-ylcarbamate]",EC50,"[1]; read-out: LE_1a (EC50, range)",< 5.46 nM
same,EC50,"[2]; read-out: LE_1b (EC50, range)",< 5.46 nM
CCOc1cnc(O[C@@H]2C[C@H]3C(=O)N[C@]4(C(=O)NS(=O)(=O)C5(C)CC5)C[C@H]4/C=C\CC[C@@H](C)C[C@@H](CC)[C@H](NC(=O)OC(C)(C)C(F)(F)F)C(=O)N3C2)c2ccc(OC)cc12 [Compound 4227],EC50,[1]; [3],< 5.46 nM
same,EC50,[2]; [4],< 5.46 nM
"COc1ccc2c(O[C@@H]3C[C@H]4C(=O)N[C@]5(C(=O)NS(=O)(=O)C6(C)CC6)C[C@H]5/C=C\CC[C@@H](C)C[C@@H](C)[C@H](N)C(=O)N4C3)ncc(OC)c2c1 [Compound 4228, (2R,6S,7R,9R,13aS,14aR,16aS,Z)-6-amino-2-(4,6-dimethoxyisoquinolin-1-yloxy)-7,9-dimethyl-N-(1-methylcyclopropylsulfonyl)-5,16-dioxo-1,2,3,5,6,7,8,9,10,11,13a,14,14a,15,16,16a-hexadecahydrocyclopropa[e]pyrrolo[1,2-a][1,4]diazacyclopentadecine-14a-carboxamide]",EC50,"[1]; read-out: LE_1a (EC50, range)",< 5.46 nM
same,EC50,"[2]; read-out: LE_1b (EC50, range)",< 5.46 nM
COc1ccc2c(O[C@@H]3C[C@H]4C(=O)N[C@]5(C(=O)NS(=O)(=O)C6CC6)C[C@H]5/C=C\CC[C@H](C)C[C@@H](C)[C@H](NC(=O)OC(C)(C)C(F)(F)F)C(=O)N4C3)ncc(OC)c2c1 [Compound 4229],EC50,[1]; [3],< 5.46 nM
same,EC50,[2]; [4],< 5.46 nM
CCOc1cnc(O[C@@H]2C[C@H]3C(=O)N[C@]4(C(=O)NS(=O)(=O)C5(C)CC5)C[C@H]4/C=C\CC[C@H](C)C[C@@H](C)[C@H](NC(=O)OC(C)(C)C(F)(F)F)C(=O)N3C2)c2ccc(OC)cc12 [Compound 4230],EC50,[1]; [3],< 5.46 nM
same,EC50,[2]; [4],< 5.46 nM
C=COc1cnc(O[C@@H]2C[C@H]3C(=O)N[C@]4(C(=O)NS(=O)(=O)C5(C)CC5)C[C@H]4/C=C\CC[C@@H](C)C[C@@H](C)[C@H](NC(=O)OC(C)(C)C(F)(F)F)C(=O)N3C2)c2ccc(OC)cc12 [Compound 4231],EC50,[1]; [3],< 5.46 nM
same,EC50,[2]; [4],< 5.46 nM
"COc1cc2ccnc(O[C@@H]3C[C@H]4C(=O)N[C@]5(C(=O)NS(=O)(=O)C6(CF)CC6)C[C@H]5/C=C\CC[C@@H](C)C[C@@H](C)[C@H](N)C(=O)N4C3)c2cc1F [Compound 4235, (2R,6S,7R,9R,13aS,14aR,16aS,Z)-6-amino-2-(7-fluoro-6-methoxyisoquinolin-1-yloxy)-N-(1-(fluoromethyl)cyclopropylsulfonyl)-7,9-dimethyl-5,16-dioxo-1,2,3,5,6,7,8,9,10,11,13a,14,14a,15,16,16a-hexadecahydrocyclopropa[e]pyrrolo[1,2-a][1,4]diazacyclopentadecine-14a-carboxamide]",EC50,"[1]; read-out: LE_1a (EC50, range)",4.82 to 103 nM
same,EC50,"[2]; read-out: LE_1b (EC50, range)",4.82 to 103 nM
CC[C@@H]1C[C@H](C)CC/C=C\[C@@H]2C[C@@]2(C(=O)NS(=O)(=O)C2(C)CC2)NC(=O)[C@@H]2C[C@@H](Oc3ncc(OC)c4cc(OC)c(F)cc34)CN2C(=O)[C@H]1NC(=O)OC(C)(C)C(F)(F)F [Compound 4236],EC50,[1]; [3],< 5.46 nM
same,EC50,[2]; [4],< 5.46 nM
CC[C@@H]1C[C@H](C)CC/C=C\[C@@H]2C[C@@]2(C(=O)NS(=O)(=O)C2(C)CC2)NC(=O)[C@@H]2C[C@@H](Oc3ncc(N4CCOCC4)c4cc(OC)c(F)cc34)CN2C(=O)[C@H]1NC(=O)OC(C)(C)C(F)(F)F [Compound 4237],EC50,[1]; [3],< 5.46 nM
same,EC50,[2]; [4],< 5.46 nM
COc1cc2c(OC)cnc(O[C@@H]3C[C@H]4C(=O)N[C@]5(C(=O)NS(=O)(=O)C6(CO)CC6)C[C@H]5/C=C\CC[C@@H](C)C[C@@H](C)[C@H](NC(=O)OC(C)(C)C(F)(F)F)C(=O)N4C3)c2cc1F [Compound 4238],EC50,[1]; [3],4.82 to 103 nM
same,EC50,[2]; [4],4.82 to 103 nM
"CC[C@@H]1C[C@H](C)CC/C=C\[C@@H]2C[C@@]2(C(=O)NS(=O)(=O)C2CC2)NC(=O)[C@@H]2C[C@@H](Oc3ncnc4cc(OC)ccc34)CN2C(=O)[C@H]1NC(=O)OC(C)(C)C [Compound 4239, tert-butyl ((2R,6S,7R,9R,13aS,14aR,16aS,Z)-14a-((cyclopropylsulfonyl)carbamoyl)-7-ethyl-2-((7-methoxyquinazolin-4-yl)oxy)-9-methyl-5,16-dioxo-1,2,3,5,6,7,8,9,10,11,13a,14,14a,15,16,16a-hexadecahydrocyclopropa[e]pyrrolo[1,2-a][1,4]diazacyclopentadecin-6-yl)carbamate]",EC50,"[1]; read-out: LE_1a (EC50, range)",< 5.46 nM
same,EC50,"[2]; read-out: LE_1b (EC50, range)",< 5.46 nM
"CC[C@@H]1C[C@H](C)CC/C=C\[C@@H]2C[C@@]2(C(=O)NS(=O)(=O)C2CC2)NC(=O)[C@@H]2C[C@@H](Oc3ncc(N4CCOCC4)c4cc(OC)c(F)cc34)CN2C(=O)[C@H]1NC(=O)OC(C)(C)C [Compound 4240, tert-butyl ((2R,6S,7R,9R,13aS,14aR,16aS,Z)-14a-((cyclopropylsulfonyl)carbamoyl)-7-ethyl-2-((7-fluoro-6-methoxy-4-morpholinoisoquinolin-1-yl)oxy)-9-methyl-5,16-dioxo-1,2,3,5,6,7,8,9,10,11,13a,14,14a,15,16,16a-hexadecahydrocyclopropa[e]pyrrolo[1,2-a][1,4]diazacyclopentadecin-6-yl)carbamate]",EC50,[1]; read-out: LE_1a (EC50),1.23 nM
same,EC50,"[1]; read-out: LE_1a (EC50, range)",1.01 to 5 nM
same,EC50,[2]; read-out: LE_1b (EC50),1.09 nM
same,EC50,"[2]; read-out: LE_1b (EC50, range)",1.01 to 5 nM
CC[C@@H]1C[C@H](C)CC/C=C\[C@@H]2C[C@@]2(C(=O)NS(=O)(=O)C2(C)CC2)NC(=O)[C@@H]2C[C@@H](Oc3ncc(N(C)C)c4cc(OC)ccc34)CN2C(=O)[C@H]1NC(=O)OC(C)(C)C(F)(F)F [Compound 4241],EC50,[1]; [3],1.01 to 5 nM
same,EC50,[2]; [4],1.01 to 5 nM
